{"source": "paper PMC7926726", "about": "“The Wound Healing Peptide, AES16-2M, Ameliorates Atopic Dermatitis In Vivo” (Molecules, 2021)", "assay": "Water solubility of the peptide", "type": "physicochemical", "settings": "in water; analysed by Anygen; previously described [16] and updated in this study", "description": "To investigate whether the wound healing peptide, AES16-2M, could improve AD, Dermatophagoides farina (Df) body-induced AD model was established, and 10 mg/kg of AES16-2M was used as the optimal dose determined by preliminary experiments. […] Since increased IgE and TSLP production is closely related to AD pathology, the total IgE levels from sera were determined.\nAES16-2M was synthesized and analyzed for purity, water solubility, and molecular weight by Anygen (Gwang Ju, Korea). Peptide with purity over 95% was used for this study.", "note": "Ends that are not written are not given here.", "data": [{"substance": "REGRT [AES16-2M]", "values": [{"measurement": "water solubility", "value": "over 10.0 mg/mL"}]}]}
